Measured values reported in US20210128537A1, “T-TYPE CALCIUM CHANNEL MODULATORS AND METHODS OF USE THEREOF” (Praxis Precision Medicines, inc., priority 2016, published 2021).
Like-named read-outs stand apart in the source and are kept apart here.

How the values were obtained:
fully kindled rats = experiment: Amygdala kindling model, anti-seizure testing in fully kindled rats; type: in vivo, rat; details: for primary after discharge: all four doses of Z944, ETX 100 mg/kg, compared to vehicle (p>0.5)
Method: Animals were implanted with EEG recording electrodes and with a stimulating bipolar electrode in the left basolateral amygdaloid nucleus using the coordinates AP±3.0 mm, ML±5.9 mm, DV±6.0 mm. The after discharge threshold (ADT) for each animal was determined by administering a stimulation (frequency=60.1 Hz; duration=1000 μs) at one minute intervals until a seizure was clicited. The amplitude of the stimulation was started at 0.02 mA with increments of 0.02 mA; the stimulations were stopped when the animal experienced a seizure of ≥6 second duration, or if the amplitude of 0.40 mA was reached without the occurrence of a seizure. […] Kindling was performed twice a day for five days per week with an endpoint of 30 stimulations or until the animal presented five class V seizures (referred to as fully kindled). The seizure severity was classified from 0 (less severe) to V (most severe) according to the Racine Scale (Racine, 1972b). Sham kindled animals were handled the same way as the kindled animals, although no electrical stimulation was applied. An animal is classified as fully kindled once it has experienced 5 class V seizures.
Drug testing was performed twice a week until all animals had received each of the seven treatments, Z944 (5 mg/kg, 10 mg/kg, 30 mg/kg and 100 mg/kg), vehicle (10% DMSO/90% Na^+-CMC or CBZ vehicle 20% DMSO/40% propylene glycol/40% saline), ETX (100 mg/kg) or CBZ (30 mg/kg). Prior to drug testing each day, animals were subjected to a maximum of three pre-drug stimulations 30 minutes apart. The animals qualified for testing on that particular day if a class IV or V seizure was elicited in at least 2 out of 3 pre-drug stimulations. Stimulations consisted of a 1 second train of 1 ms biphasic square wave pulses at a frequency of 60 Hz with current amplitude based on each animal ADT that elicited a seizure. Thirty minutes after the last pre-drug stimulation, the animals received an IP injection of one of the seven treatments in a randomized manner at a dose volume of 5 ml/kg. Six post-drug stimulations were administered to each animal, the first stimulation was given 15 minutes post drug injection (to allow brain penetration of the drugs) and the following five stimulations were delivered in 30 minutes intervals thereafter with the seizure class elicited being recorded after each post-drug stimulation. The duration of the primary and total seizures, if any, were recorded. An investigator blinded to the drug treatment analyzed all EEG recordings. Primary after discharge is the duration of the seizure elicited from the kindling stimulation. Total after discharge is the total seizure duration including any secondary seizures that occur after the primary after discharge. Primary after discharge duration and total seizure duration were recorded and averaged for the 6 post-drug stimulations.
Animal weight and behaviour when handled were monitored for the duration of the experimental period. Additionally, animals were assessed by observation for any adverse effects of drugs on grooming, fur appearance, gait, and excretion.

hCaV3.2 = hCaV3.2 (Homo sapiens, UniProt O95180); experiment: Inactivated channel state FLIPR assay, concentration-dependent inhibition of hCaV3.2; type: cell-based; details: for IC50: hCaV3.2, inactivated channel state FLIPR, n=4 wells per concentration; for slope of the concentration-inhibition curve: logistic function fit
Sequence of hCaV3.2 (O95180 whole entry): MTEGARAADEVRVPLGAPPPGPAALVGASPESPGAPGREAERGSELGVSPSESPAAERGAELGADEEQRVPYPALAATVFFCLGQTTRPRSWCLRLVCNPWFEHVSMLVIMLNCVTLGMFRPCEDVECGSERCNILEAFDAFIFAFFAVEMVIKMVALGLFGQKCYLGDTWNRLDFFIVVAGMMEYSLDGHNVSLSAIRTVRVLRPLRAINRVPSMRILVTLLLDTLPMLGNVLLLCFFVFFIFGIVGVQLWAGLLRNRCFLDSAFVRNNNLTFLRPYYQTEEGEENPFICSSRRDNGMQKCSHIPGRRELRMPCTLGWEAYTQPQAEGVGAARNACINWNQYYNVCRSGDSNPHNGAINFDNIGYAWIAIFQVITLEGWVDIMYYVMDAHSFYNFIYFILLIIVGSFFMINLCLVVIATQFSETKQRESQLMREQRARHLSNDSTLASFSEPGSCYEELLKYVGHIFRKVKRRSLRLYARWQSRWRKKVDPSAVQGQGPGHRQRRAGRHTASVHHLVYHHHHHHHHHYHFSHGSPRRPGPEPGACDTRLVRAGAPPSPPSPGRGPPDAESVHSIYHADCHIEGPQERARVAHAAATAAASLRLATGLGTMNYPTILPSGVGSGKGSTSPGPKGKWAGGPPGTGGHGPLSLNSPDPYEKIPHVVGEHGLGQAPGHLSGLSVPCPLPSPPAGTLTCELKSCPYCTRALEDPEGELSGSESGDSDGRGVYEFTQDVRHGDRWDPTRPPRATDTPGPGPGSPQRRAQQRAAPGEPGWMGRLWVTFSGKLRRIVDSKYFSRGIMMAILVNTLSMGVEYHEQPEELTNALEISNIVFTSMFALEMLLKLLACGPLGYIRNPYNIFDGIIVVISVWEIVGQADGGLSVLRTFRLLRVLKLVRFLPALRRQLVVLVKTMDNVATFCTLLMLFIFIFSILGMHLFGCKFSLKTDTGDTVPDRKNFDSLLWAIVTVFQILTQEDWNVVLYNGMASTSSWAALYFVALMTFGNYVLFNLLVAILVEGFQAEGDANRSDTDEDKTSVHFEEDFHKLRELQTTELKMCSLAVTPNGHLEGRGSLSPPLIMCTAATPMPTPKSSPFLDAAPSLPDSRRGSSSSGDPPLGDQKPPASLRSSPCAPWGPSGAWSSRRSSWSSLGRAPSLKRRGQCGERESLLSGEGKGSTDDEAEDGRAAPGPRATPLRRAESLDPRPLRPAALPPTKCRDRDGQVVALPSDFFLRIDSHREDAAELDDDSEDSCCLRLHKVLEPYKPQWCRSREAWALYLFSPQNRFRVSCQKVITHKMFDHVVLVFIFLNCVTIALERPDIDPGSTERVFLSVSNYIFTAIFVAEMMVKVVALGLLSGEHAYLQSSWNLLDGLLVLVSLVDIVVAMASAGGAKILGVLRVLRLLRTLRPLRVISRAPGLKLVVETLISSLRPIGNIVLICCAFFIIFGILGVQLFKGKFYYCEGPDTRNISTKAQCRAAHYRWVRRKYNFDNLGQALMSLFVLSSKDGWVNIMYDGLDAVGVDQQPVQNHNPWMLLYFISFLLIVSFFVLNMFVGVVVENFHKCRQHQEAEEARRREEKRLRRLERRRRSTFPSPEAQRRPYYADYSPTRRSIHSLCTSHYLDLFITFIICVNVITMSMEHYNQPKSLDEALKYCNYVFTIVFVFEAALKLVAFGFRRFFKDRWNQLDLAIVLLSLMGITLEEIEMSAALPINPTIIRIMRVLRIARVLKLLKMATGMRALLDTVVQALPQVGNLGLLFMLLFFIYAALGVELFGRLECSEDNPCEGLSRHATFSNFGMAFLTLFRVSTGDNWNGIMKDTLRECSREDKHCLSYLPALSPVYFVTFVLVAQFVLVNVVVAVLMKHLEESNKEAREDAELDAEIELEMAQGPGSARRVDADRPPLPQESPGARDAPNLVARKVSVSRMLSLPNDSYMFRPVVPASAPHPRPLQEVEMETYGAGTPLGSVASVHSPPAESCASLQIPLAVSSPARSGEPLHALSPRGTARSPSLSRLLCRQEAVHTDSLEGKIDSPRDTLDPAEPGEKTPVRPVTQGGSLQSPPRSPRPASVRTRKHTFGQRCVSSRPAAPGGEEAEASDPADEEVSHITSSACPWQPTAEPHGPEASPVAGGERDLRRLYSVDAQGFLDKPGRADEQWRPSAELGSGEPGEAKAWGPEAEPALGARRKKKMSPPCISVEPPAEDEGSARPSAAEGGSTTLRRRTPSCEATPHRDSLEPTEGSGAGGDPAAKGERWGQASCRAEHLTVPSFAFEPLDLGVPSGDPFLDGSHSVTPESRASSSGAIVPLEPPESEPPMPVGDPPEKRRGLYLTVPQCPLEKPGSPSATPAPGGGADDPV

[1] = tested on: absence seizures in patients; details: cited from earlier work
post-SE rats [2] = experiment: Morris water maze in post-SE rats; type: in vivo, rat; details: Z944 60 mg/kg/day, levetiracetam 200 mg/kg/day for 4 weeks
Method: All behavioural tests were performed in a light-controlled (˜110 lux), closed, quiet and clean room in the. Behavioural testing was performed in a blinded manner to the treatment groups. All of the behavioural tests were video recorded for future analysis. OF, EPM and MWM sessions were filmed using a digital camera mounted above the centre of the arena, which was connected to a computer for the recording and objective analysis of digitized behavioural tests (EthoVision 3.0.15, Noldus). The first behavioural test was performed one week after the last EEG recording. The different behavioural tests/session were performed 24 hours apart from each other. All tests were scored by an experienced observer who was blind to the experimental conditions of the animals.
The MWM is a circular black PVC plastic pool of 160 cm diameter which is filled to a depth of either 2.5 cm above a 10 cm diameter hidden platform water at 25±1° C. The platform is located in the centre of the South-West quadrant during the first 3 sessions and changed to North-East quadrant for the remaining sessions. Visual cues are placed in the main 4 cardinal points, consisting of large black and white symbols that serve as orientation landmarks for the rats. […] The latency to find the escape platform, speed and strategic path used by the animal to locate the platform are recorded. […]

post-SE rats [3] = experiment: Kainic acid induced post-status epilepticus model, video-EEG seizure analysis; type: in vivo, rat; details: osmotic pump 4 weeks; Z944 60 mg/kg/day, levetiracetam 200 mg/kg/day
Method: Pumps were filled with either Z944 to deliver a daily dose of 60 mg/kg, levetiracetam to deliver a daily dose of 200 mg/kg or vehicle. For the drug tolerability study, osmotic pumps continuously either Z944, levetiracetam or vehicle for 7 days and for the post-SE study osmotic pumps delivered continuously the different treatments for 28 days.
FIG. 11 summarizes the different methods used on this experimental paradigm.
Animals were implanted with subdural EEG recording electrodes and one week after surgery, the animals were connected using cables that allowed them free movement around their cage. A repeated low dose KA administration protocol was used. Rats were injected i.p. with an initial dose of KA 7.5 mg/kg plus 3 ml of normal saline to prevent dehydration. Animals were monitored for 45 minutes for EEG and behavioural seizures based on the Racine scale. […] This was repeated up to 2 times every 45 minutes. An animal was eliminated from the experiment if it didn't show a stable self-sustained SE after a maximum KA total dose of 15 mg/kg. Two sham groups were treated identically but received saline injections instead of KA. After four hours of sustained electroencephalographic and behavioural seizures the animals were randomly allocated to one of the five treatment groups: sham+vehicle (n=6), sham+Z944 (n=6), post-SE+vehicle (n=8), post-SE+Z944 (n=8), post-SE+levetiracetam (n=9).
Animals were anesthetized and implanted with subcutaneous osmotic pumps containing either vehicle Z944 (60 mg/kg/day), or levetiracetam (200 mg/kg/day) that delivered the treatment continuously for 4 weeks. Immediately after the pump implantation, SE was stopped with diazepam (5 mg/kg/dose).
vEEG recordings commenced at least 4 h prior the induction of SE to provide baseline recordings. The video-EEG recordings continued for the whole duration of the treatment period, i.e. four weeks after the termination of the SE. […] EEG analysis was performed in a blinded manner and confirmed by two different observers. All EEG recordings were visually and manually annotated using Profusion 3 software. A seizure was defined as an episode of rhythmic spiking activity that was three times the baseline amplitude and a frequency >5 Hz that lasted at least 10 s. The end of a seizure was determined as the last spike. The average number of seizures per day, average seizure duration and seizure class (severity) were analysed.

Row | IC50 (hCaV3.2) [mM] | slope of the concentration-inhibition curve (hCaV3.2) | SMILES | primary after discharge (fully kindled rats; IP, CBZ 30 mg/kg) | other results
1 | 70 |  | CCC1(C)CC(=O)NC1=O (stereo not drawn) [Ethosuximide, ethosuximide, reference compound] | did not affect the primary after discharge | 
2 |  | 4.4 | CCCC(CCC)C(=O)[O-].[Na+] [Valproate, sodium valproate] |  | patients whose seizures were completely controlled ([1]; at 12 months): 44%; patients whose seizures were completely controlled ([1]; at 16 weeks, video-EEG recordings): 58%

More lines, now with the values behind:

Row | SMILES | IC50 (hCaV3.2) [mM] | slope of the concentration-inhibition curve (hCaV3.2) | primary after discharge (fully kindled rats; IP, CBZ 30 mg/kg) | other results
3 | NC(=O)N1c2ccccc2C=Cc2ccccc21 [Carbamazepine, carbamazepine, reference compound] |  |  | did not affect the primary after discharge | seizure class elicited (Racine scale) (fully kindled rats; IP, Z944 5, 10, 30, 100 mg/kg, CBZ 30 mg/kg, compared to vehicle): significantly reduced the class of seizure elicited; adverse effects (sedation scale 0-4) compared to vehicle (fully kindled rats; Z944 100 mg/kg, CBZ 30 mg/kg IP, p<0.01): significantly higher adverse effects
4 | CC(C)(C)NC(=O)CN1CCC(CNC(=O)c2cccc(Cl)c2)CC1 [Z941] | 0.00012 | 0.8 |  | 
5 | CC[C@@H](C(N)=O)N1CCCC1=O [levetiracetam, reference compound] |  |  |  | time to find the hidden platform (cognition) (post-SE rats [2]): took significantly longer to find the hidden platform; neurological adverse effects after prolonged treatment (post-SE rats [3]): only transient and minor neurological adverse effects
